Results taken from US5112852A, “Allenyl amines” (Merrell Dow Pharmaceuticals Inc., priority 1989, dated 1992).

Key:
hypertensive rats = test: Antihypertensive activity in vivo, conscious hypertensive rats, mean blood pressure; details: 50 mg/kg (ip)
Procedure: The ability of compounds of this invention to lower blood pressure can be determined in vivo using hypertensive rats according to standard and well known procedures. The test compound is administered intraperitoneally (ip) to conscious rats and the blood pressure monitored continuously. Decreased mean blood pressure over time was observed when a compound of this invention was tested by the above described procedure, as indicated in Table II.

[1] = tested on: dopamine-β-hydroxylase (DBH); test: DBH inhibitory activity in vitro (time-dependent inactivation; oxygen uptake with tyramine substrate); type: biochemical; details: 1 mM, pH 4.5 to 5.5, preferably pH 5.0, 20-40° C., preferably 37° C., spread +/-1.1
Procedure: The DBH inhibitory properties of the compounds of this invention can readily be determined by standard and well known procedures such as those procedures set forth in U.S. Pat. No. 4,415,591. […] The test compound is added at the desired concentration, and the system is incubated. At different time intervals aliquots are taken and DBH activity is measured using tyramine as the substrate. The reaction is followed by measuring oxygen uptake using a polarographic electrode and an oxygen monitor by the method of S. May, et al., J. Biol. Chem. 256, 2258 (1981).

- t 1/2 (time required for 50% inhibition) [1]: 1.3 h
SMILES: C=C=C(CN)c1cccs1 [β-ethenylidene-2-thiopheneethanamine, β-Ethenylidene-2-thiopheneethanamine]
- Maximum % Change in mean Blood Pressure (hypertensive rats; decrease per text): 15.6%
- Duration (hypertensive rats; duration of blood pressure change): 10 h
